Data on six compounds can be found in patent publication US12398154B2, “Azaquinazoline pan-KRas inhibitors” (Mirati Therapeutics, Inc., priority 2020, dated 2025).

Some results are limits rather than exact numbers.

In assay [1] the target is KRas G12D (Homo sapiens, UniProt P01116, G12D). In words: biochemical.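 Further: TR-FRET displacement binding assay on KRas, read after a one-hour incubation at room temperature, IC50 fitted from percent-of-control values.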
Experimental: (§1) The ability of a compound to bind to KRas was measured using a TR-FRET displacement assay. […] After a 60-minute incubation at room temperature, the reaction was measured using a BMG LABTECH CLARIO star Plus via TR-FRET. […] The POC values were fit to a 4-parameter IC50 equation and the IC50 value reported.
Assay [2] concerns the target KRas G12V (Homo sapiens, UniProt P01116, G12V). In words: biochemical.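 Further: KRas binding measured by TR-FRET displacement at room temperature, IC50 fitted from percent of control values.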
Experimental: as §1
For assay [3], the target named is KRas G12R (Homo sapiens, UniProt P01116, G12R). In words: biochemical.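 Further: TR-FRET displacement assay of compound binding to KRas, read after one hour at room temperature, potency from a four-parameter fit of percent-of-control values.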
Chain of KRas G12R (P01116 1-169 isoform P01116-2 G12R): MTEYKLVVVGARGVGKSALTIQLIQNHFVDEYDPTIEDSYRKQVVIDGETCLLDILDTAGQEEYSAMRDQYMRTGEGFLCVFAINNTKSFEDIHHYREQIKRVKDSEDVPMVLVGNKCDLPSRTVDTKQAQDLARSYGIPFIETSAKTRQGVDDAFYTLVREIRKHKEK
Experimental: as §1
For assay [4], the system named is pERK in ASPC1 cells. In words: Inhibition of KRas phosphorylation of ERK (Cisbio HTRF pERK assay). To be noted: Homo sapiens, ASPC1, read-out: Inhibition (HTRF IC50) of KRas-mediated Phosphorylation of ERK, AsPC-1. For orientation: TR-FRET usually uses a lanthanide donor and a delayed reading to cut background.
The test system of assay [5] is pERK in HCT116 cells. The description is as above. To be noted: Homo sapiens, HCT-116, read-out: Inhibition (HTRF IC50) of KRas-mediated Phosphorylation of ERK, HCT116.
Assay [6] concerns pERK in MKN1 cells. The assay is described as above. The settings on record: Homo sapiens, MKN-1, 3 h, read-out: Inhibition (HTRF IC50) of KRas-mediated Phosphorylation of ERK, MKN1.
The subject of assay [7] is pERK in PSN1 cells. The description is as above. To be noted: Homo sapiens, PSN1, 3 h, read-out: Inhibition (HTRF IC50) of KRas-mediated Phosphorylation of ERK, PSN1.
Experimental: To harvest cells from flask using 0.05% Trypsin/EDTA solution. Add 10 mL of media to stop trypsinizing. Pipette the cells into a conical bottom 50 mL centrifuge tube and centrifuge 5 min×1000 rpm. • 2. Re-suspend the cell pellet in media, take a cell count, and then adjust the cell density using fresh media. • 3. Seed 6,000 cells into cell culture plate with 50 μL media. […] Incubate cell plate overnight in a 37° C., 5% CO2 incubator. • Compound titrations • 1. Use Tecan to complete the compound addition. Compounds start from 10 uM top, 3-fold dilution, and 10 doses. The final DMSO concentration is 0.8%. Dispensed 0.2 uM Trametinib as Min control. • 2. Incubate cell plate for 3 hrs in the incubator. • Detection with cisbio pERK HTRF kit • 1. […] At the end of the compound treatment, flick-off the media. • 3. Add 35 μL of lysis buffer per well using a Multidrop Combi. Then place on a plate agitator shaking at 300 rpm at 4° C. for 40 mins. • 4. Make up the HTRF antibody buffer. For each assay plate, mix 50 μL of d2-conjugate antibody with 950 μL of detection buffer. Similarly, mix 50 μL of Cryptate antibody with 950 μL of detection buffer. Then mix the two diluted antibodies together. • 5. Dispense 3.4 μL the antibody buffer to wells of an empty assay plate. Seal the plate and centrifuge plate 30 sec×1000 rpm. • 6. At the end of the 4° C. lysis, centrifuge the lysate plates 3 mins×1500 rpm. • 7. Use the Bravo to transfer 13.6 μL of lysate from cell culture plate to assay plate.
Then incubate assay plate for 2 hrs at room temperature. […] At the end of incubation, read plate on the Envision after centrifuging plate 30 sec× • 1000 rpm.
Assay [8] deals with pERK in H727 cells. Described as above. The settings on record: Homo sapiens, NCI-H727, read-out: Inhibition (HTRF IC50) of KRas-mediated Phosphorylation of ERK, H727.

Chain of KRas G12V (P01116 1-169 isoform P01116-2 G12V): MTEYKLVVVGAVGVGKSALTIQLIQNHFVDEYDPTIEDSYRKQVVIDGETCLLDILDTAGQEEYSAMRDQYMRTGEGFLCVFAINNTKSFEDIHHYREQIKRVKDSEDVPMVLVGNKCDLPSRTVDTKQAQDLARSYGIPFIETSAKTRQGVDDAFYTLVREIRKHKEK
Chain of KRas G12D (P01116 1-169 isoform P01116-2 G12D): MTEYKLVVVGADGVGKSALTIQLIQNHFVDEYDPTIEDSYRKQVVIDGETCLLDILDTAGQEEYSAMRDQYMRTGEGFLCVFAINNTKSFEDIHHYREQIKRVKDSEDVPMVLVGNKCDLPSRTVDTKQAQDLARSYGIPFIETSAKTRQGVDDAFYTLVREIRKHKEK

Usually IC50 stands for the concentration that gives 50% inhibition. For `CCc1c(F)ccc2cc(O)cc(-c3ncc4c(NCC(N)CC(=O)O)nc(OC[C@@]56CCCN5C[C@H](F)C6)nc4c3F)c12` (single isomer, unassigned) [Example 374], the IC50 in assay [1] was ≤ 2 nM; in assay [2], 9 nM; in assay [3] it was 15 nM; in assay [4], 9380 nM; in assay [5], ≥ 10000 nM.
Take `CCc1c(F)ccc2cc(O)cc(-c3ncc4c(NCC5CCNC5=O)nc(OC[C@@]56CCCN5C[C@H](F)C6)nc4c3F)c12` (stereo partly drawn) [Example 368, 3-(((7-(8-ethyl-7-fluoro-3-hydroxynaphthalen-1-yl)-8-fluoro-2-(((2R,7aS)-2-fluorotetrahydro-1H-pyrrolizin-7a(5H)-yl)methoxy)pyrido[4,3-d]pyrimidin-4-yl)amino)methyl)pyrrolidin-2-one]: the IC50 in assay [1] was 4 nM; in assay [2] it was 24 nM; in assay [3] it was 11 nM; in assay [6], 191 nM; in assay [7], ≥ 10000 nM; in assay [4], 4680 nM. The IC50 in assay [8] was found to be 617 nM.
In the case of `O=C1NC(=O)C2CN(c3nc(OC[C@@]45CCCN4C[C@H](F)C5)nc4c(F)c(-c5cc(O)cc6ccc(F)c(Cl)c56)ncc34)CC12` (stereo partly drawn) [Example 423, 5-(7-(8-chloro-7-fluoro-3-hydroxynaphthalen-1-yl)-8-fluoro-2-(((2R,7aS)-2-fluorohexahydro-1H-pyrrolizin-7a-yl)methoxy)pyrido[4,3-d]pyrimidin-4-yl)tetrahydropyrrolo[3,4-c]pyrrole-1,3(2H,3aH)-dione], the concentration for half-maximal inhibition (IC50) in assay [1] was ≤ 2 nM; in assay [2], ≤ 2 nM; in assay [3] it was ≤ 2 nM; in assay [6], 110 nM; in assay [7], ≥ 10000 nM; in assay [4] it was 556 nM. Further, in assay [8], the IC50 was 2220 nM.
For the compound `CCc1c(F)ccc2cc(O)cc(-c3ncc4c(NCCC5CCC(=O)N5)nc(OC[C@@]56CCCN5C[C@H](F)C6)nc4c3F)c12` (stereo partly drawn) [Example 377, 5-(2-((7-(8-ethyl-7-fluoro-3-hydroxynaphthalen-1-yl)-8-fluoro-2-(((2R,7aS)-2-fluorotetrahydro-1H-pyrrolizin-7a(5H)-yl)methoxy)pyrido[4,3-d]pyrimidin-4-yl)amino)ethyl)pyrrolidin-2-one], the IC50 is ≤ 2 nM in assay [1]; 3 nM in assay [2]; 12 nM in assay [3]; 2300 nM in assay [6]; ≥ 10000 nM in assay [7]; ≥ 10000 nM in assay [4]. For the same compound, the IC50 in assay [8] worked out at 7780 nM.
`CCc1c(F)ccc2cc(O)cc(-c3ncc4c(N5CCOC6(CCS(=O)(=O)CC6)C5)nc(OC[C@@]56CCCN5C[C@H](F)C6)nc4c3F)c12` [Example 502, 4-(7-(8-ethyl-7-fluoro-3-hydroxynaphthalen-1-yl)-8-fluoro-2-(((2R,7aS)-2-fluorohexahydro-1H-pyrrolizin-7a-yl)methoxy)pyrido[4,3-d]pyrimidin-4-yl)-1-oxa-9-thia-4-azaspiro[5.5]undecane 9,9-dioxide]: the IC50 in assay [1] was 638 nM; in assay [2], 457 nM; in assay [3] it was 607 nM; in assay [6], 1940 nM; in assay [7] it was ≥ 10000 nM; in assay [4] it was 2100 nM. The IC50 in assay [8] is 6460 nM.
As for `CCc1c(F)ccc2cc(O)cc(-c3ncc4c(NCCC5CNC(=O)N5)nc(OC[C@@]56CCCN5C[C@H](F)C6)nc4c3F)c12` (stereo partly drawn) [Example 382, 4-(2-((7-(8-ethyl-7-fluoro-3-hydroxynaphthalen-1-yl)-8-fluoro-2-(((2R,7aS)-2-fluorohexahydro-1H-pyrrolizin-7a-yl)methoxy)pyrido[4,3-d]pyrimidin-4-yl)amino)ethyl) imidazolidin-2-one], the half-inhibitory concentration (IC50) in assay [1] is 9 nM; in assay [2] it was ≤ 2 nM; in assay [3], 3 nM; in assay [6], 781 nM; in assay [7], ≥ 10000 nM; in assay [4], ≥ 10000 nM. Moreover, in assay [8], the IC50 is 5900 nM.
